Reference: article PMC5427475, “Effect of clopidogrel on the hydroxylation and sulfoxidation of omeprazole: A single dose study in healthy human volunteers” (EXCLI Journal, 2017)
Where two headings read alike, the source gives them in different places.

How the values were obtained:
[1] = ref McEwen et al., 1999; cited from earlier work
[2] = Single-dose crossover pharmacokinetic study of omeprazole (40 mg) alone or with clopidogrel (150 mg) in healthy volunteers (CYP2C19 EM and PM), plasma LC-MS; type: in vivo, human; conditions: for AUC0-∞, % increase / Cmax, % increase / E Half-life, % increase / Tmax, % increase / Cl, % increase: OMP+CLOP vs OMP alone; for half-life: read-out: E Half-life (converted)
Protocol: A group of twelve healthy volunteers were recruited for this study (divided into two groups), and written informed consent was obtained from all participants included in the study. […] Electrocardiogram, routine lab tests including hematological, kidney and liver function tests were performed for all the volunteers. They were physically examined and their medical history was also evaluated. All volunteers were non-smokers and abstained from taking any other medicine and juices in the week prior to the study. Volunteers were served standard breakfast and lunch during the study. […] This study was conducted in accordance to “World Medical Association (WMA) declaration of Helsinki-Ethical principles for medical research involving human subjects” and its amendments. The study was approved by the ethical committee, Department of Pharmacy, University of […], Pakistan. (Application number13/EC/Pharm. Ref number 12/Pharm). It was a single dose, 2-period, 2-sequence study with 14 days washout period. […] Approximately 3 mL of blood was collected from each volunteer at 0, 0.5, 1, 2, 3, 4, 6, and 8 hr after dose administration in heparinized tubes. After centrifugation, the plasma was transferred into properly labeled eppendroff tubes and stored at a temperature of -20 °C until analysis. OMP and its metabolites were extracted from the plasma using precipitation method and were analyzed using LCMS method. The mobile phase consisted of 0.1 % formic acid in acetonitrile: 0.1 % formic acid in water (40/60 v/v) using Hichrom RP18 (150 × 3.0 mm, 3 μm UK) as a stationary phase interfaced with a LTQ Orbit rap mass spectrometer. Pantoprazole was used as an internal standard (Ahmad et al., 2015[1]). Various PK parameters were calculated using the PK Solutions software. […] The AUC0-∞ was determined by trapezoidal rule. The elimination half life was determined by using first-order equation, i.e., The apparent oral clearance (CL/F) was determined by using equation, Dose/AUC0-∞. The pharmacokinetic data was interpreted statistically using SPSS software (version 16.0; SPSS, Inc, Chicago, IL). […] P < 0.05 was considered statistically significant.

[3] = extensive metabolizers, OMP 40 mg + CLOP 150 mg
[4] = extensive metabolizers, OMP 40 mg alone
[5] = poor metabolizers, OMP 40 mg + CLOP 150 mg
[6] = poor metabolizers, OMP 40 mg alone
[7] = human, plasma, oral, 40 mg, extensive metabolizers, OMP 40 mg alone
[8] = human, plasma, oral, 40 mg, extensive metabolizers, OMP 40 mg alone, read-out: Tmax
[9] = human, plasma, oral, 40 mg, poor metabolizers, OMP 40 mg alone
[10] = human, plasma, oral, 40 mg, poor metabolizers, OMP 40 mg alone, read-out: Tmax
[11] = human, plasma, oral, extensive metabolizers (n = 8), OMP 40 mg + CLOP 150 mg, single dose, plasma, read-out: Cmax
[12] = human, plasma, oral, extensive metabolizers, OMP 40 mg + CLOP 150 mg
[13] = human, plasma, oral, extensive metabolizers, OMP 40 mg + CLOP 150 mg, read-out: Tmax
[14] = human, plasma, oral, poor metabolizers (n = 4), OMP 40 mg + CLOP 150 mg, single dose, plasma, read-out: Cmax
[15] = human, plasma, oral, poor metabolizers, OMP 40 mg + CLOP 150 mg
[16] = human, plasma, oral, poor metabolizers, OMP 40 mg + CLOP 150 mg, read-out: Tmax
[17] = human, plasma, po, 40 mg, extensive metabolizers (n = 8), OMP 40 mg alone, single oral dose, plasma, read-out: Cmax
[18] = human, plasma, po, 40 mg, poor metabolizers (n = 4), OMP 40 mg alone, single oral dose, plasma, read-out: Cmax

Row | AUC0-∞, % increase ([2]; extensive metabolizers) | Cmax, % increase ([2]; extensive metabolizers) | E Half-life, % increase ([2]; extensive metabolizers) | Tmax, % increase ([2]; extensive metabolizers) | AUC0-∞, % increase ([2]; poor metabolizers) | Cmax, % increase ([2]; poor metabolizers) | Tmax, % increase ([2]; poor metabolizers) | AUC(0-inf) [2, 7] | half-life [2, 7] | Tmax [2, 8] | AUC(0-inf) [2, 9] | half-life [2, 9] | Tmax [2, 10] | Cmax [2, 11] | AUC(0-inf) [2, 12] | half-life [2, 12] | Tmax [2, 13] | Cmax [2, 14] | AUC(0-inf) [2, 15] | half-life [2, 15] | Structure (SMILES) | further results
1 |  |  |  |  |  |  |  |  |  |  |  |  |  |  |  |  |  |  |  |  | COC(=O)[C@H](c1ccccc1Cl)N1CCc2sccc2C1 [CLOP, clopidogrel] | oral bioavailability [1]: less than 50%
2 | -14.22% ± 2.80 | -16.23% ± 5.8 | -8.30% ± 6.1 | -8.23 ± 4.3% | -1.73% ± 2.38 | -4.9% ± 3.61 | 5.20% ± 4.0 |  |  |  |  |  |  |  |  |  |  |  |  |  | COc1ccc2nc([S+]([O-])Cc3ncc(CO)c(OC)c3C)[nH]c2c1 (centres unmarked) [5-OH-OMP, 5-hydroxyomeprazole] | Cmax ([2]; extensive metabolizers (n = 8), OMP 40 mg + CLOP 150 mg, single dose, plasma): 401 ± 35 ng/mL; Cmax ([2]; extensive metabolizers (n = 8), OMP 40 mg alone, single oral dose, plasma): 562 ± 53 ng/mL; AUC0-∞ [2, 3]: 1615 ± 401 ng·h/mL; E Half-life [2, 3]: 1.097 ± 0.106 h; Tmax [2, 3]: 2.49 ± 0.281 h; AUC0-∞ [2, 4]: 2203 ± 619 ng·h/mL; E Half-life [2, 4]: 1.24 ± 0.129 h; Tmax [2, 4]: 2.723 ± 0.394 h; Cmax ([2]; poor metabolizers (n = 4), OMP 40 mg + CLOP 150 mg, single dose, plasma): 373 ± 32 ng/mL; Cmax ([2]; poor metabolizers (n = 4), OMP 40 mg alone, single oral dose, plasma): 407 ± 46 ng/mL; AUC0-∞ [2, 5]: 1566 ± 90 ng·h/mL; E Half-life [2, 5]: 2.828 ± 0.188 h; Tmax [2, 5]: 3.138 ± 0.251 h; AUC0-∞ [2, 6]: 1607 ± 126 ng·h/mL; E Half-life [2, 6]: 2.588 ± 0.111 h; Tmax [2, 6]: 2.988 ± 0.311 h
3 | 9.33% ± 5.13 |  | 6.31% ± 4.31 | 0.043% ± 0.0204 | 4.11% ± 1.68 | 5.46% ± 2.08 | -0.78% ± 0.32 | 4040 ± 282 ng·h/mL | 1.05 ± 0.187 h | 2.8 ± 0.178 h | 8820 ± 778 ng·h/mL | 1.58 ± 0.058 h | 2.99 ± 0.411 h | 1090 ± 146 ng/mL | 4900 ± 620 ng·h/mL | 1.13 ± 0.185 h | 2.9 ± 0.228 h | 1630 ± 116 ng/mL | 9070 ± 861 ng·h/mL | 1.51 ± 0.049 h | COc1ccc2[nH]c([S+]([O-])Cc3ncc(C)c(OC)c3C)nc2c1 (centres unmarked) [OMP, omeprazole] | drug metabolite ratio [AUC]OMP/5-OH-OMP ([2]; EM): 1.94 ±0.602; drug metabolite ratio [AUC]OMP/OMP-S ([2]; EM): 13.64 ± 2.711; drug metabolite ratio [AUC]OMP/5-OH-OMP ([2]; PM): 9.84 ± 4.543; drug metabolite ratio [AUC]OMP/OMP-S ([2]; PM): 9.85 ± 4.98; Cl (apparent oral clearance, Dose/AUC0-∞) [2, 3]: 1.94445 ± 0.356 mL/min/kg; Cl (apparent oral clearance, Dose/AUC0-∞) [2, 4]: 2.29722 ± 0.38992 mL/min/kg; Cl, % increase ([2]; extensive metabolizers): -15.42% ± 4.92; Tmax [2, 16]: 2.98 ± 0.414 h; Cmax [2, 17]: 890 ± 83 ng/mL; Cmax [2, 18]: 1410 ± 146 ng/mL; Cl (apparent oral clearance, Dose/AUC0-∞) [2, 5]: 0.88245 ± 0.125 mL/min/kg; Cl (apparent oral clearance, Dose/AUC0-∞) [2, 6]: 0.97735 ± 0.144 mL/min/kg; Cl, % increase ([2]; poor metabolizers): -9.6% ± 1.72; E Half-life, % increase ([2]; poor metabolizers): -4.73% ± 3.06
4 | 5.01% ± 1.57 | 8.01% ± 2.0 | 3.81% ± 1.70 | -2.5% ± 1.18 | 2.32% ± 2.9 |  | -3.28% ± 0.60 | 535 ± 58 ng·h/mL | 2.37 ± 0.472 h | 2.72 ± 0.278 h | 1500 ± 118 ng·h/mL | 3.34 ± 0.438 h | 3.06 ± 0.17 h | 198 ± 26 ng/mL | 612 ± 70 ng·h/mL | 2.48 ± 0.496 h | 2.65 ± 0.255 h | 431 ± 56 ng/mL | 1520 ± 102 ng·h/mL | 3.14 ± 0.44 h | COc1ccc2nc(S(=O)(=O)Cc3ncc(C)c(OC)c3C)[nH]c2c1 [OMP-S, omeprazole sulfone] | Tmax [2, 16]: 3 ± 0.077 h; Cmax [2, 17]: 175 ± 24 ng/mL; Cmax [2, 18]: 444 ± 53 ng/mL; E Half-life, % increase ([2]; poor metabolizers): -6.08% ± 0.96
